Reference: patent publication US20260201008A1, “SECRETIN-DERIVED GLP1R SELECTIVE AGONISTS” (GUBRA A/S, priority 2023, published 2026)
Like-named read-outs stand apart in the source and are kept apart here. Numbered stars: 1 amine (or outer) side, 2 acyl side, 3 side chain; on linkers, the order of the positions; unused ones are H or OH. Square brackets hold non-standard residues; d marks the D form. Side chains are listed from the residue outwards. Peptide text beside a SMILES is read from it. * marks the point of attachment. C20 diacid = O=C(O)CCCCCCCCCCCCCCCCCCC(=O)*; γGlu = O=C(O)[C@H](CCC(=O)[*:2])N[*:1]; AEEA = NCCOCCOCC(=O)O; Aib = CC(C)(N)C(=O)O

Columns and labels:
SCTR = SCTR (Homo sapiens, UniProt P47872); assay: hSCTR potency, cAMP accumulation in CHO-K1 cells stably overexpressing hSCTR; assay type: cell-based; parameters: alternatively Euroscreen ES-712-AF; FAST-0161L; host or cells: CHO-K1; details: cAMP accumulation, CHO-K1 cells overexpressing hSCTR
Outline: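 Read-out is TR-FRET cAMP detection, recorded one hour after reagent addition, in CHO-K1 cells stably overexpressing hSCTR. Cells in DPBS containing 0.05% casein and 0.5 mM IBMX are exposed to graded peptide doses for 30 min at room temperature, with human secretin as reference agonist.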

[1] = Turbidity of crude library peptides (absorbance at 600 nm); assay type: physicochemical; details: Physical stability of peptides
Outline: (§1)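 Crude peptides at 267 μM in 50 mM sodium acetate pH 4.0 or 50 mM sodium phosphate pH 7.0, pre-incubated 1-2 h at room temperature, then 4 μM final ThT added. Turbidity read first as A600. ThT fluorescence (ex 450/em 480 nm) read every 10 min for 72 h at 40° C, with 5 min shaking before each read; fibril formation = average emission.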

GLP1R = GLP1R (Homo sapiens, UniProt P43220); assay: hGLP1R potency, cAMP accumulation in CHO-K1 cells stably overexpressing hGLP1R; assay type: cell-based; parameters: host or cells: CHO-K1; details: for Selectivity: SCTR EC50/GLP1R EC50 ratio; for EC50: cAMP accumulation, CHO-K1 cells overexpressing hGLP1R; for SCTR EC50/GLP1R EC50 ratio: selectivity for hGLP1R over hSCTR, cAMP accumulation in CHO-K1 cells
Outline: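 Thawed cells go straight into buffer containing 0.5 mM IBMX and 0.05% casein, get graded compound doses for 30 min at room temperature, and are then assayed for accumulated cAMP by time-resolved FRET. Human GLP-1(7-36) serves as positive control; EC50 is derived by nonlinear regression.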

[2] = Fibril formation of crude library peptides (Thioflavin T); assay type: physicochemical; parameters: key: average ThT fluorescence emission at 480 nm (ex 450 nm), raw units; details: Physical stability of peptides
Outline: as §1

[3] = read-out: pEC50 hSCTR (converted)
[4] = read-out: pEC50 hGLPR1 (converted)
[5] = read-out: hSCTR pEC50 (converted)
[6] = read-out: hGLP1R pEC50 (converted)

Sequence of SCTR (P47872 23-440): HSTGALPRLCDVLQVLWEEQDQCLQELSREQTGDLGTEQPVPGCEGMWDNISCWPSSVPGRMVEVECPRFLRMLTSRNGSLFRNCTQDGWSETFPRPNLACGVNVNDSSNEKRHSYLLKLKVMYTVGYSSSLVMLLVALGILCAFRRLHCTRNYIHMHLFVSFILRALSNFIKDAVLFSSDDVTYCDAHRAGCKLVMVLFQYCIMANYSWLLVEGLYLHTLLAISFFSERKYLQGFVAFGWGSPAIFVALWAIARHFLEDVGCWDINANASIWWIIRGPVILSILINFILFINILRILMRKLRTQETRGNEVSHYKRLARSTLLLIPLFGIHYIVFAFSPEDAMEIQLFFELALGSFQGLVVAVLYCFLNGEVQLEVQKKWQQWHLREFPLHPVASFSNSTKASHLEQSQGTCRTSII
Sequence of GLP1R (P43220 24-463): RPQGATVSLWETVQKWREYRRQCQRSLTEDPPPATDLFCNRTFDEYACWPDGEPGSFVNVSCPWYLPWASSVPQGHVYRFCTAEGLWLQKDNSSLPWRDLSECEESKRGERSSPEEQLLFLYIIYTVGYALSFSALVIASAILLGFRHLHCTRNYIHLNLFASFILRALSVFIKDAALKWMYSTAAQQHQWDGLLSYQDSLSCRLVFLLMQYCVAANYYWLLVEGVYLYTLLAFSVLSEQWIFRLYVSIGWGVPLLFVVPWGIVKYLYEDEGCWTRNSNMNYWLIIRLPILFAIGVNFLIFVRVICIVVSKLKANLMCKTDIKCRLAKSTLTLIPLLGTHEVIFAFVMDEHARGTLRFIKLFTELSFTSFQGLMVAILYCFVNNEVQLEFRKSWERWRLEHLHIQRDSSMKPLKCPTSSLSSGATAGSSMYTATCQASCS

CC(C)C[C@H](NC(=O)[C@H](Cc1ccccc1)NC(=O)[C@H](CCCNC(=N)N)NC(=O)[C@H](CCC(N)=O)NC(=O)[C@@H](NC(=O)[C@H](C)NC(=O)[C@H](C)NC(=O)C(C)(C)NC(=O)[C@H](CCC(=O)O)NC(=O)[C@H](CCCCNC(=O)COCCOCCNC(=O)COCCOCCNC(=O)CC[C@H](NC(=O)CCCCCCCCCCCCCCCCCCC(=O)O)C(=O)O)NC(=O)[C@H](CC(C)C)NC(=O)[C@H](Cc1ccc(O)cc1)NC(=O)[C@H](CO)NC(=O)[C@@H](NC(=O)[C@H](CC(=O)O)NC(=O)[C@H](CO)NC(=O)[C@@H](NC(=O)[C@H](Cc1ccccc1)NC(=O)[C@@H](NC(=O)CNC(=O)[C@H](CCC(=O)O)NC(=O)C(C)(C)NC(=O)[C@@H](N)Cc1c[nH]cn1)[C@@H](C)O)[C@@H](C)O)C(C)C)[C@@H](C)O)C(=O)N[C@@H](CCC(=O)O)C(=O)N[C@@H](Cc1c[nH]cn1)C(=O)N[C@@H](CC(C)C)C(=O)N[C@H](C(N)=O)C(C)C [compound 48] (H-H[Aib]EGTFTSDVSYLK([AEEA-AEEA-γGlu-C20 diacid])E[Aib]AATQRFLEHLV-NH2)
EC50 (SCTR; [3]): 126 nM | Turbidity (pH 7) [1]: 0.08 | Selectivity (GLP1R): 5236 | EC50 (GLP1R; [4]): 0.0251 nM | Fibril formation [2]: 16290

CC[C@H](C)[C@H](NC(=O)[C@H](Cc1ccccc1)NC(=O)[C@H](CCCNC(=N)N)NC(=O)[C@H](CCC(N)=O)NC(=O)[C@H](CC(C)C)NC(=O)[C@H](C)NC(=O)[C@H](C)NC(=O)CNC(=O)[C@H](CCC(=O)O)NC(=O)[C@H](CC(C)C)NC(=O)[C@H](CC(C)C)NC(=O)[C@H](Cc1ccccc1)NC(=O)[C@H](CO)NC(=O)[C@@H]1CCCN1C(=O)[C@H](CC(=O)O)NC(=O)[C@H](CO)NC(=O)[C@@H](NC(=O)[C@H](Cc1ccccc1)NC(=O)[C@@H](NC(=O)CNC(=O)[C@H](CCC(=O)O)NC(=O)C(C)(C)NC(=O)[C@@H](N)Cc1c[nH]cn1)[C@@H](C)O)[C@@H](C)O)C(=O)N[C@@H](CCC(N)=O)C(=O)N[C@@H](Cc1c[nH]c2ccccc12)C(=O)N[C@@H](CC(C)C)C(=O)N[C@H](C(N)=O)C(C)C [compound 126] (H-H[Aib]EGTFTSDPSFLLEGAALQRFIQWLV-NH2)
EC50 (SCTR; [5]): 2000 nM | Turbidity (pH 7) [1]: 0.26 | EC50 (GLP1R; [6]): 7.94 nM | SCTR EC50/GLP1R EC50 ratio (GLP1R): 253 | Fibril formation [2]: 41799

CC(C)C[C@H](NC(=O)[C@H](Cc1ccccc1)NC(=O)[C@H](CCCNC(=N)N)NC(=O)[C@H](CCC(N)=O)NC(=O)C(C)(C)NC(=O)[C@H](C)NC(=O)[C@H](C)NC(=O)C(C)(C)NC(=O)[C@H](CCC(=O)O)NC(=O)[C@H](CCCCNC(=O)COCCOCCNC(=O)COCCOCCNC(=O)CC[C@H](NC(=O)CCCCCCCCCCCCCCCCCCC(=O)O)C(=O)O)NC(=O)[C@H](CC(C)C)NC(=O)[C@H](CCC(=O)O)NC(=O)[C@H](CO)NC(=O)[C@@H](NC(=O)[C@H](CC(=O)O)NC(=O)[C@H](CO)NC(=O)[C@@H](NC(=O)[C@H](Cc1ccccc1)NC(=O)[C@@H](NC(=O)CNC(=O)[C@H](CCC(=O)O)NC(=O)C(C)(C)NC(=O)[C@@H](N)Cc1c[nH]cn1)[C@@H](C)O)[C@@H](C)O)C(C)C)C(=O)N[C@@H](CCC(=O)O)C(=O)N[C@@H](Cc1c[nH]cn1)C(=O)N[C@@H](CC(C)C)C(=O)N[C@H](C(N)=O)C(C)C [compound 7] (H-H[Aib]EGTFTSDVSELK([AEEA-AEEA-γGlu-C20 diacid])E[Aib]AA[Aib]QRFLEHLV-NH2)
EC50 (SCTR; [3]): 1000 nM | Turbidity (pH 7) [1]: 0.08 | Selectivity (GLP1R): 18030 | EC50 (GLP1R; [4]): 0.0631 nM | Fibril formation [2]: 10801

CC[C@H](C)[C@H](NC(=O)[C@H](Cc1ccccc1)NC(=O)[C@H](CCCNC(=N)N)NC(=O)[C@H](CCC(N)=O)NC(=O)[C@H](CC(C)C)NC(=O)[C@H](C)NC(=O)[C@H](C)NC(=O)CNC(=O)[C@H](CCC(=O)O)NC(=O)[C@H](CC(C)C)NC(=O)[C@H](CC(C)C)NC(=O)[C@H](CCC(=O)O)NC(=O)[C@H](CO)NC(=O)[C@@H](NC(=O)[C@H](CC(=O)O)NC(=O)[C@H](CO)NC(=O)[C@@H](NC(=O)[C@H](Cc1ccccc1)NC(=O)[C@@H](NC(=O)CNC(=O)[C@H](CCC(=O)O)NC(=O)C(C)(C)NC(=O)[C@@H](N)Cc1c[nH]cn1)[C@@H](C)O)[C@@H](C)O)[C@@H](C)CC)C(=O)N[C@@H](CCC(N)=O)C(=O)N[C@@H](Cc1c[nH]c2ccccc12)C(=O)N[C@@H](CC(C)C)C(=O)N[C@H](C(N)=O)C(C)C [compound 119] (H-H[Aib]EGTFTSDISELLEGAALQRFIQWLV-NH2)
EC50 (SCTR; [5]): 50.1 nM | Turbidity (pH 7) [1]: 0.12 | EC50 (GLP1R; [6]): 0.0251 nM | SCTR EC50/GLP1R EC50 ratio (GLP1R): 2127 | Fibril formation [2]: 13897

CC(C)C[C@H](NC(=O)[C@H](Cc1ccccc1)NC(=O)[C@H](CCCNC(=N)N)NC(=O)[C@H](CCC(N)=O)NC(=O)[C@H](CO)NC(=O)[C@H](C)NC(=O)[C@H](C)NC(=O)[C@H](Cc1ccccc1)NC(=O)[C@H](CCC(=O)O)NC(=O)[C@H](CCCCNC(=O)COCCOCCNC(=O)COCCOCCNC(=O)CC[C@H](NC(=O)CCCCCCCCCCCCCCCCCCC(=O)O)C(=O)O)NC(=O)[C@H](CC(C)C)NC(=O)[C@H](Cc1ccccc1)NC(=O)[C@H](CO)NC(=O)[C@@H](NC(=O)[C@H](CC(=O)O)NC(=O)[C@H](CO)NC(=O)[C@@H](NC(=O)[C@H](Cc1ccccc1)NC(=O)[C@@H](NC(=O)CNC(=O)[C@H](CCC(=O)O)NC(=O)C(C)(C)NC(=O)[C@@H](N)Cc1c[nH]cn1)[C@@H](C)O)[C@@H](C)O)C(C)C)C(=O)N[C@@H](CCC(=O)O)C(=O)N[C@@H](Cc1c[nH]cn1)C(=O)N[C@@H](CC(C)C)C(=O)N[C@H](C(N)=O)C(C)C [compound 91] (H-H[Aib]EGTFTSDVSFLK([AEEA-AEEA-γGlu-C20 diacid])EFAASQRFLEHLV-NH2)
EC50 (SCTR; [5]): 31600 nM | Turbidity (pH 7) [1]: 0.42 | EC50 (GLP1R; [6]): 0.316 nM | SCTR EC50/GLP1R EC50 ratio (GLP1R): 101438 | Fibril formation [2]: 260000

CC(C)C[C@H](NC(=O)[C@H](Cc1ccccc1)NC(=O)[C@H](CCCNC(=N)N)NC(=O)[C@H](CCC(N)=O)NC(=O)[C@H](CC(C)C)NC(=O)C(C)(C)NC(=O)[C@H](C)NC(=O)[C@H](CCC(=O)O)NC(=O)[C@H](CCC(=O)O)NC(=O)[C@H](CCCCNC(=O)COCCOCCNC(=O)COCCOCCNC(=O)CC[C@H](NC(=O)CCCCCCCCCCCCCCCCCCC(=O)O)C(=O)O)NC(=O)[C@H](CC(C)C)NC(=O)[C@H](Cc1ccc(O)cc1)NC(=O)[C@H](CO)NC(=O)[C@@H](NC(=O)[C@H](CC(=O)O)NC(=O)[C@H](CO)NC(=O)[C@@H](NC(=O)[C@H](Cc1ccccc1)NC(=O)[C@@H](NC(=O)CNC(=O)[C@H](CCC(=O)O)NC(=O)C(C)(C)NC(=O)[C@@H](N)Cc1c[nH]cn1)[C@@H](C)O)[C@@H](C)O)C(C)C)C(=O)N[C@@H](CCC(=O)O)C(=O)N[C@@H](CCCCN)C(=O)N[C@@H](CC(C)C)C(=O)N[C@H](C(N)=O)C(C)C [compound 147] (H-H[Aib]EGTFTSDVSYLK([AEEA-AEEA-γGlu-C20 diacid])EEA[Aib]LQRFLEKLV-NH2)
EC50 (SCTR; [5]): 63.1 nM | Turbidity (pH 7) [1]: 0.08 | EC50 (GLP1R; [6]): 0.00501 nM | SCTR EC50/GLP1R EC50 ratio (GLP1R): 12361 | Fibril formation [2]: 4336
